Test results taken from patent US4963526A, “Oral insulin and a method of making the same” (priority 1988, dated 1990).

System: white laboratory rats
Experiment: Blood glucose level in rats before and three hours after administration of the oral insulin preparation
Type: in vivo
Conditions: white laboratory rat, 5 units of bovine insulin, three hours after administration
Experimental: Two white laboratory rats, weighing 177 and 197 grams, respectively, were used in this experiment. One rat was administered a preparation of oral insulin according to the present invention containing 5 units of insulin; a formulation of the oral insulin according to the present invention containing 10 units of bovine insulin was administered to the second rat. Blood samples were drawn from each animal before and three hours after administration of the oral insulin preparation. The results given below are expressed as the percentage of the pre-experiment blood glucose level.
One white laboratory rat weighing 181 grams received a non-encapsulated preparation containing 5 units of free bovine insulin. This animal served as the control. After three hours, blood glucose level was 98.7% of the pre-experiment blood glucose level.

For “free bovine insulin: non-encapsulated preparation containing 5 units of free bovine insulin; served as the control”, the “blood glucose level as percentage of the pre-experiment (initial) blood glucose level” value was 98.7 % of initial blood glucose lev.
